Data published in patent US9326988B2, “Treatment and/or prevention of parkinson's disease dementia with ceftriaxone” (CHUNG SHAN MEDICAL UNIVERSITY, priority 2012, dated 2016).

Test system: normal rats
Experiment: T-maze test (working memory) in sham-operated rats
Format: in vivo, male Wistar rats
Conditions: determined 10th day (FIG. 3)
Experimental: The rats in the sham-operated groups were generally subjected to the same surgical procedures for the rats in the pathological control group, the preventive groups, and the treatment groups, except that an equal volume of saline was infused bilaterally into the SNc of the mesencephalon of rats in the shame-operated groups.
5 days before the MPTP-HCl injection, ceftriaxone (Sigma) was administered to the rats in the preventive groups 1,2 via intraperitoneal injection respectively at a daily dose of 100 mg/kg and at a daily dose of 200 mg/kg until the end of the 14th day after the MPTP-HCl injection. After the MPTP-HCl injection, ceftriaxone was administered to the rats in the treatment group 1 and the sham-operated groups 2,3 via intraperitoneal injection respectively at a daily dose of 200 mg/kg, at a daily dose of 100 mg/kg, and at a daily dose of 200 mg/kg, and saline was administered to the rats in the pathological control group and the sham-operated group 1 via intraperitoneal injection at a daily dose of 1 mL/kg. In addition, starting on the 3rd day after the MPTP-HCl injection, ceftriaxone was administered to the rats in the treatment groups 2,3 via intraperitoneal injection respectively at a daily dose of 100 mg/kg and at a daily dose of 200 mg/kg. […]

## CO/N=C(\C(=O)N[C@@H]1C(=O)N2C(C(=O)O)=C(CSc3nc(=O)c(=O)[nH]n3C)CS[C@H]12)c1csc(N)n1 [ceftriaxone, Ceftriaxone]
sham-operated group 2: 100 mg/kg daily i.p. to 14th day
  correct response rate compared to sham-operated group 1 (saline): no statistical significance
sham-operated group 3: 200 mg/kg daily i.p. to 14th day
  correct response rate compared to sham-operated group 1 (saline): no statistical significance
